# Assay results published in ChEMBL document CHEMBL1136618, “Bis(acridinylthiourea)platinum(II) complexes: synthesis, DNA affinity, and biological activity in glioblastoma cells” (Bioorg Med Chem Lett, 2003).
# System: Nucleic Acid
# Experiment: Intrinsic binding constant in calf thymus DNA
# Format: nucleic-acid assay, Bos taurus
row,Compound,Kb [M⁻¹]
1,CNC(=S)N(C)CCNc1c2ccccc2nc2ccccc12,1500000
2,CNc1c2ccccc2nc2ccccc12,110000
